Laboratory results: the NIST ThermoML archive (doi:10.1016/j.fluid.2017.03.021)

What was measured:
[1] = 101.33 kPa, Liquid; for speed of sound: Sing-around technique in a fixed-path interferometer; for mass density: Vibrating tube method
[2] = molar heat capacity at constant pressure; settings: 101.33 kPa, Liquid, DSC

CCCC[n+]1ccn(C2CCCC2)c1.O=S(=O)([N-]S(=O)(=O)C(F)(F)F)C(F)(F)F
Settings | mass density, [1] [kg/m3] | molar heat capacity at constant pressure, [2] [J/K/mol] | speed of sound, [1] [m/s]
287.15 K | 1384.9 | – | 1298.1
289.15 K | 1383.1 | – | 1293.1
291.15 K | 1381.2 | – | 1288.1
293.15 K | 1379.4 | 648.54 | 1283.2
294.15 K | – | 649.39 | –
295.15 K | 1377.5 | 650.01 | 1278.3
296.15 K | – | 650.62 | –
297.15 K | 1375.7 | 651.28 | 1273.4
298.15 K | – | 651.99 | –
299.15 K | 1373.8 | 652.8 | 1268.6
300.15 K | – | 653.46 | –
301.15 K | 1372 | 654.08 | 1263.8
302.15 K | – | 654.84 | –
303.15 K | 1370.2 | 655.4 | 1259
304.15 K | – | 656.21 | –
305.15 K | 1368.4 | 657.01 | 1254.2
306.15 K | – | 657.63 | –
307.15 K | 1366.5 | 658.43 | 1249.4
308.15 K | – | 659.14 | –
309.15 K | 1364.7 | 659.9 | 1244.7
310.15 K | – | 660.66 | –
311.15 K | 1362.9 | 661.42 | 1240
312.15 K | – | 662.22 | –
313.15 K | 1361.1 | 663.07 | 1235.3
314.15 K | – | 663.88 | –
315.15 K | 1359.3 | 664.73 | 1230.6
316.15 K | – | 665.35 | –
317.15 K | 1357.5 | 666.15 | 1226
318.15 K | – | 666.77 | –
319.15 K | 1355.7 | 667.43 | 1221.4
320.15 K | – | 668.19 | –
321.15 K | 1353.9 | 668.94 | 1216.7
322.15 K | – | 669.75 | –
323.15 K | 1352.1 | 670.51 | 1212.1
324.15 K | – | 671.26 | –
325.15 K | 1350.3 | 672.02 | 1207.6
326.15 K | – | 672.78 | –
327.15 K | 1348.5 | 673.49 | 1203
328.15 K | – | 674.44 | –
329.15 K | 1346.7 | 675.15 | 1198.5
330.15 K | – | 675.95 | –
331.15 K | 1344.9 | 676.8 | 1193.9
332.15 K | – | 677.56 | –
333.15 K | 1343.1 | 678.41 | 1189.4
334.15 K | – | 679.22 | –
335.15 K | 1341.3 | 680.21 | 1185
336.15 K | – | 680.88 | –
337.15 K | 1339.6 | 681.63 | 1180.5
338.15 K | – | 682.34 | –
339.15 K | 1337.8 | 683.01 | 1176.1
340.15 K | – | 683.91 | –
341.15 K | 1336 | 684.76 | 1171.7
342.15 K | – | 685.47 | –
343.15 K | 1334.3 | 686.27 | 1167.3
344.15 K | – | 686.94 | –
345.15 K | – | 687.65 | –
346.15 K | – | 688.45 | –
347.15 K | – | 689.07 | –
348.15 K | – | 690.11 | –
